What was measured:
Experiment in all cases: relative viability (nuclei count vs DMSO), 5 days (fraction); higher = more cells survive
[1] = compound: C=CCNC1=C2C[C@@H](C)C[C@H](OC)[C@H](O)[C@@H](C)/C=C(\C)[C@H](OC(N)=O)[C@@H](OC)/C=C\C=C(/C)C(=O)NC(=CC1=O)C2=O [17-AAG] + CC(=O)c1c(C)c2cnc(Nc3ccc(N4CCNCC4)cn3)nc2n(C2CCCC2)c1=O [Palbociclib] (partner 0.5 µM)
Method in brief: (§1)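 A single step with final 0.05% Triton X-100, 1% formaldehyde and 1 ug/ml Hoechst fixed the cells and stained nuclei 5 days after treatment. Lung cancer cell lines in 1536-well plates had been treated by pin tool the day after seeding with one drug alone or a fixed anchor-drug dose plus five library-drug doses (not always all listed) in √10 steps, and nuclei were counted on 4× images. Relative viability is the ratio of nuclei in treated wells to nuclei in vehicle wells, taken as the median of duplicate plates.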

[2] = compound: C=CCNC1=C2C[C@@H](C)C[C@H](OC)[C@H](O)[C@@H](C)/C=C(\C)[C@H](OC(N)=O)[C@@H](OC)/C=C\C=C(/C)C(=O)NC(=CC1=O)C2=O [17-AAG] + Cc1nc(NC(=O)N2CCC[C@H]2C(N)=O)sc1-c1ccnc(C(C)(C)C(F)(F)F)c1 [Alpelisib] (partner 2 µM)
Method in brief: as §1

[3] = compound: C=CCNC1=C2C[C@@H](C)C[C@H](OC)[C@H](O)[C@@H](C)/C=C(\C)[C@H](OC(N)=O)[C@@H](OC)/C=C\C=C(/C)C(=O)NC(=CC1=O)C2=O [17-AAG] + Nc1nc2[nH]cc(CCc3ccc(C(=O)N[C@@H](CCC(=O)O)C(=O)O)cc3)c2c(=O)[nH]1 [Pemetrexed] (partner 0.2 µM)
Method in brief: as §1

[4] = compound: C=CCNC1=C2C[C@@H](C)C[C@H](OC)[C@H](O)[C@@H](C)/C=C(\C)[C@H](OC(N)=O)[C@@H](OC)/C=C\C=C(/C)C(=O)NC(=CC1=O)C2=O [17-AAG] + O=C(c1cc(Cc2n[nH]c(=O)c3ccccc23)ccc1F)N1CCN(C(=O)C2CC2)CC1 [Olaparib] (partner 8 µM)
Method in brief: as §1

Row | Cell Line | relative viability ([1]; first compound 0.00128 µM) | relative viability ([1]; first compound 0.004048 µM) | relative viability ([1]; first compound 0.0128 µM) | relative viability ([1]; first compound 0.04048 µM) | relative viability ([1]; first compound 0.128 µM) | relative viability ([2]; first compound 0.00128 µM) | relative viability ([2]; first compound 0.004048 µM) | relative viability ([2]; first compound 0.0128 µM) | relative viability ([2]; first compound 0.04048 µM) | relative viability ([2]; first compound 0.128 µM) | relative viability ([3]; first compound 0.00128 µM) | relative viability ([3]; first compound 0.004048 µM) | relative viability ([3]; first compound 0.0128 µM) | relative viability ([3]; first compound 0.04048 µM) | relative viability ([3]; first compound 0.128 µM) | relative viability ([4]; first compound 0.00128 µM) | relative viability ([4]; first compound 0.004048 µM) | relative viability ([4]; first compound 0.0128 µM) | relative viability ([4]; first compound 0.04048 µM) | relative viability ([4]; first compound 0.128 µM)
1 | 201T | 0.364 | 0.351 | 0.353 | 0.372 | 0.35 | 1.07 | 1.03 | 0.984 | 0.943 | 0.818 | 0.317 | 0.342 | 0.361 | 0.23 | 0.213 | 0.843 | 0.857 | 0.849 | 0.802 | 0.748
2 | A549 | – | – | – | – | – | 0.777 | 0.189 | 0.0463 | 0.056 | 0.0402 | – | – | – | – | – | 0.336 | 0.338 | 0.0515 | 0.0272 | 0.0363
3 | A-427 | 0.554 | 0.506 | 0.54 | 0.354 | 0.291 | 1.05 | 1.15 | 1.12 | 1.1 | 0.995 | 0.974 | 0.961 | 0.97 | 0.321 | 0.265 | 0.814 | 0.686 | 0.806 | 0.606 | 0.241
4 | ABC-1 | 0.701 | 0.805 | 0.772 | 0.79 | 0.602 | 1.05 | 1.19 | 0.691 | 0.976 | 0.919 | – | – | – | – | – | 0.677 | 0.847 | 0.737 | 0.954 | 0.486
5 | BEN | 0.466 | 0.484 | 0.54 | 0.491 | 0.337 | 1.02 | 0.978 | 1.04 | 0.84 | 0.257 | 0.756 | 0.882 | 0.716 | 0.526 | 0.247 | 1.06 | 1.03 | 1.01 | 0.666 | 0.358
6 | CAL-12T | 0.499 | 0.364 | 0.486 | 0.191 | 0.167 | 1.43 | 1.09 | 0.993 | 0.706 | 0.658 | 1.17 | 0.951 | 1.15 | 1.04 | 0.207 | 0.754 | 0.697 | 0.725 | 0.371 | 0.211
7 | COR-L23 | 0.278 | 0.338 | 0.336 | 0.198 | 0.0966 | 0.715 | 0.826 | 0.941 | 0.376 | 0.0924 | 0.2 | 0.2 | 0.211 | 0.225 | 0.157 | 0.377 | 0.322 | 0.324 | 0.169 | 0.112
8 | COR-L 105 | 0.431 | 0.389 | 0.406 | 0.356 | 0.384 | 1.08 | 0.898 | 1.19 | 0.746 | 0.817 | 1.17 | 1.32 | 1.02 | 0.968 | 0.687 | 0.601 | 0.71 | 0.778 | 0.55 | 0.515
9 | Calu-6 | – | – | – | – | – | 0.959 | 0.928 | 0.915 | 0.363 | 0.188 | – | – | – | – | – | 0.564 | 0.571 | 0.557 | 0.184 | 0.124
10 | ChaGo-K-1 | 0.956 | 0.922 | 0.768 | 0.938 | 0.703 | – | – | – | – | – | 0.25 | 0.276 | 0.264 | 0.253 | 0.204 | 0.439 | 0.453 | 0.388 | 0.366 | 0.257
11 | EKVX | 0.357 | 0.391 | 0.363 | 0.152 | 0.127 | 0.878 | 0.944 | 0.875 | 0.208 | 0.163 | 0.475 | 0.381 | 0.491 | 0.17 | 0.131 | 0.826 | 0.762 | 0.775 | 0.175 | 0.126
12 | EMC-BAC-2 | 0.544 | 0.525 | 0.521 | 0.462 | 0.4 | 0.836 | 0.761 | 0.754 | 0.813 | 0.381 | 0.504 | 0.536 | 0.548 | 0.448 | 0.383 | 0.533 | 0.516 | 0.316 | 0.334 | 0.273
13 | EPLC-272H | 0.34 | 0.323 | 0.348 | 0.147 | 0.0684 | 1.01 | 0.934 | 0.848 | 0.756 | 0.266 | 0.404 | 0.365 | 0.166 | 0.145 | 0.0977 | 0.721 | 0.662 | 0.195 | 0.0777 | 0.0732
14 | H3255 | 0.306 | 0.292 | 0.299 | 0.247 | 0.26 | 0.672 | 0.716 | 0.498 | 0.26 | 0.154 | 0.578 | 0.6 | 0.531 | 0.287 | 0.267 | 0.556 | 0.494 | 0.484 | 0.284 | 0.231
15 | HARA | 0.248 | 0.27 | 0.261 | 0.263 | 0.215 | 0.887 | 0.967 | 0.736 | 0.828 | 0.378 | 0.256 | 0.257 | 0.29 | 0.198 | 0.147 | 0.891 | 0.78 | 1.02 | 1.18 | 0.18
16 | HCC-15 | 0.693 | 0.687 | 0.429 | 0.31 | 0.149 | 0.948 | 0.772 | 0.587 | 0.403 | 0.16 | 0.23 | 0.236 | 0.216 | 0.144 | 0.138 | 0.726 | 0.71 | 0.306 | 0.332 | 0.15
17 | HCC-44 | 0.944 | 1.01 | 0.991 | 0.978 | 0.914 | 0.792 | 0.742 | 0.656 | 0.449 | 0.138 | 0.639 | 0.619 | 0.649 | 0.694 | 0.352 | 0.976 | 0.989 | 1 | 0.997 | 0.492

Reference: the supplement of paper PMC10307832
